Assay results taken from patent publication US7192940B2, “Ether compounds” (Esperion Therapeutics, Inc., priority 1999, dated 2007).

How the values were obtained:
obese female Zucker rats [1] = assay: Experiment A: serum lipids, glucose, non-esterified fatty acids and weight gain in obese female Zucker rats after seven days of oral treatment; format: in vivo, rat; details: vehicle 6.6%
Method: Dosing vehicle, Compound A (86 mg/kg of body weight) or troglitazone (120 mg/kg of body weight) was administered to eight week old female obese Zucker rats daily for seven days in the morning by oral gavage in 1.5% carboxymethylcellulose/0.2% Tween-20. Troglitazone was obtained commercially. Finely crushed tablets were suspended in vehicle for dosing. Orbital blood samples were obtained following a six-hour fast prior to the initial dose and also following the seventh dose.
Blood serum was assayed for total cholesterol and triglycerides (FIG. 5), lipoprotein cholesterol profiles (FIG. 6), VLDL plus LDL cholesterol combined (also referred to as apo B containing lipoprotein cholesterol or non-HDL cholesterol), HDL cholesterol, and the ratio of HDL cholesterol to that of VLDL plus LDL cholesterol (FIG. 7), serum glucose, and non-esterified fatty acids (FIG. 8), and percent weight gain (FIG. 9). […] In particular, Compound A caused a marked elevation in HDL cholesterol after one week of treatment. Using the serum total cholesterol values (FIG. 5A) and the lipoprotein cholesterol distribution (FIG. 6), the amount of cholesterol associated with non-HDL (i.e., VLDL plus LDL) and HDL were determined (FIG. 7). […] In contrast, troglitazone reduced non-HDL and HDL cholesterol by 67% and 4%, respectively.

obese female Zucker rats [2] = assay: Experiments B, C, D & E: serum lipids, glucose, insulin, body and liver weight in obese female Zucker rats treated for 14 days; format: in vivo, rat; details: Experiment C
Method: In a number of different experiments, illustrative compounds of the invention and troglitazone were administered daily at various doses to 10-week old chow fed obese female Zucker rats for 14 days in the morning by oral gavage in 1.5% carboxymethylcellulose/0.2% Tween-20 (dosing vehicle). Animals were weighed daily. Animals were allowed free access to rodent chow and water throughout the study. Blood glucose was determined after a 6-hour fast in the afternoon without anesthesia from a tail vein. Serum was also prepared from a blood sample subsequently obtained from the orbital venous plexus (with O2/CO2 anesthesia) prior to and after one week treatment and used lipid and insulin determinations. At two weeks, blood glucose was again determined after a 6-hour fast without anesthesia from a tail vein. Soon thereafter, animals were sacrificed by CO2 inhalation in the evening and cardiac blood serum was collected and assessed for various lipids and insulin. Body weight was determined daily prior to dosing and at the time of euthanasia.

[3] = system: LDL receptor deficient mice; assay: Lipoprotein cholesterol profile in LDL receptor-deficient mice; format: in vivo; details: 300 mg/kg/day; one week; chow-fed female mice
Description: The effect of Compound A on LDL levels in a murine model of homozygous familial hypercholesterolemia (Ishibashi et al., 1993, J. Clin. Invest. 92:883–893; Ishibashi et al., 1994, J. Clin. Invest. 93:1885–1893) was studied. LDL receptor-deficient mice have elevated LDL cholesterol relative to wild type mice when fed a chow diet. When fed cholesterol-enriched diets, these mice develop atherosclerosis.

male Sprague-Dawley rats = assay: Serum lipids, apolipoproteins and weight gain in chow-fed male Sprague-Dawley rats after seven days of oral treatment; format: in vivo, rat; details: 100 mg/kg, 7 days, vs vehicle
Method: Illustrative compounds of the invention were administered daily at a dose of 100 mg/kg to chow fed male Sprague-Dawley rats for seven days in the morning by oral gavage in 1.5% carboxymethylcellulose/0.2% Tween-20 (dosing vehicle). Animals were weighed daily. Animals were allowed free access to rodent chow and water throughout the study. After the seventh dose, animals were sacrificed in the evening and blood serum was assayed for lipoprotein cholesterol profiles, serum triglycerides, total cholesterol VLDL, LDL, and HDL cholesterol, and the ratio of HDL cholesterol to that of VLDL plus LDL cholesterol, apolipoproteins A-I, C-II, C-III, and E by immunoelectrophoresis, and percent weight gain.
The five compounds were tested in two separate experiments. In each experiment, the experimental data were normalized against a control group of rats which received the dosing vehicle alone.

primary rat hepatocytes = assay: Synthesis of non-saponified and saponified lipids (14C-acetate incorporation) in hepatocytes; format: cell-based; details: 100 μM; 2 hr 14C-acetate labeling; vs no compound control
Method: A male Sprague-Dawley rat was anesthetized by administration of sodium pentobarbitol by intraparitoneal injection at 50 mg/kg. In situ perfusion of the liver was performed as follows. […] To digest the liver, DSC solution (6.7 mM KCl, 143 mM NaCl, 9.2 mM Na HEPES, 5 mM CaCl2—2H2O, 1.7 mM Fructose, 0.029 mM Phenol red, 0.2% BSA, 100 U/ml collagenase Type I, 93 U/ml Hyaluronidase, 160 BAEE/ml trypsin inhibitor, pH 7.5) was perfused through the liver at a flow rate of 30 ml/min for 6 minutes at a temperature of 37° C. After digestion, cells were dispersed in a solution of DMEM− (DMEM containing 2 mM GlutMax-1, 0.2% BSA, 5% FBS, 12 nM insulin, 1.2 μM hydrocortisone) to stop the digestion process. The crude cell suspension was filtered through three layers of stainless steel mesh with pore sizes of 250, 106, and 75 μm respectively. Filtered cells were centrifuged at 50×g for two minutes and the supernatant discarded. The resulting cell pellet was resuspended in DMEM and centrifuged again. This final cell pellet was resuspended in DMEM+HS solution (DMEM containing 2 mM GlutMax-1, 20 nM delta-aminolevulinic acid, 17.4 mM MEM non-essential amino acids, 20% FBS, 12 nM insulin, 1.2 μM hydrocortisone) and plated to form monolayer cultures at a density of 100×10^3 cells/cm^2 on collagen coated culture dishes. […]

## Cc1c(C)c2c(c(C)c1O)CCC(C)(COc1ccc(CC3SC(=O)NC3=O)cc1)O2 (stereo not drawn) [troglitazone, reference compound]
Obese female Zucker rats [1]; 120 mg/kg
  weight gain: +11.6%
Obese female Zucker rats [2]; after two weeks at 12, 40 and 120 mg/kg, after one week at 120 mg/kg
  weight gain: increased weight gain
Obese female Zucker rats [2]; after two weeks, doses 12, 40, 120 mg/kg (FIG. 16)
  percent liver to body weight: reduced at all doses

## CC(C)(CO)CCCCOCCCCC(C)(C)CO [Compound A, 6-(6-hydroxy-5,5-dimethylhexyloxy)-2,2-dimethyl-hexan-1-ol]
Obese female Zucker rats [1]; 86 mg/kg
  increase in body weight: 5.4%
[3]
  HDL: HDL elevation
  LDL cholesterol: rapid and significant reduction
Obese female Zucker rats [2]; 100 mg/kg
  glucose to insulin ratio: reduced
Obese female Zucker rats [2]; 100 mg/kg, fasted
  blood glucose: tendency to lower blood glucose
Obese female Zucker rats [2]; 1 and 3 mg/kg, over two weeks (same as control)
  decline of glucose to insulin ratio: ⅓ to ½
Obese female Zucker rats [2]; 10, 30 and 100 mg/kg, after one and two weeks
  weight gain: markedly reduced
Obese female Zucker rats [2]; 10 and 30 mg/kg
  glucose to insulin ratio: sustained at pretreatment levels
Obese female Zucker rats [2]; higher doses (above 3 mg/kg)
  sharp rise in serum insulin: largely curtailed or minimized
Male Sprague-Dawley rats
  change in VLDL cholesterol: no change

## CC(C)(CCCOCCCC(C)(C)OP(=O)(OCc1ccccc1)OCc1ccccc1)OP(=O)(OCc1ccccc1)OCc1ccccc1 [Compound E, phosphoric acid dibenzyl ester 4-(4-(bis-benzyloxy-phosphoryloxy)-4-methyl-pentyloxy)-1,1-dimethyl-butyl ester]
Primary rat hepatocytes
  rates of saponified fatty acid synthesis: reduced

## CC(C)(O)CCCCOCCCCC(C)(C)O [Compound F, 6-(5-hydroxy-5-methyl-hexyloxy)-2-methyl-hexan-2-ol]
Primary rat hepatocytes
  rates of saponified fatty acid synthesis: reduced
